One experiment concerns the target T1, LDH Type V (Oryctolagus cuniculus, UniProt P13491).
T1 construct: were determined in pure isolated enzyme preparations; from tissue; host or cells: rabbit muscle
The experiment can be described thus: LDH enzyme kinetic activity (NADH oxidation). In kind it is biochemical, rabbit. From the text: FIG. 2—The toxicity of selected plant extracts and 2′,3,4′5,7-pentahydroxyflavone were previously determined on N-2A neuroblastoma cells prior to examination of their effects on kinetic activity of pyruvate kinase (PK) and LDH (data not shown). Briefly, the effects of experimental compounds on PK and LDH Type V, resembling that inherent to human cancer (Koukourakis et al., Br J Cancer. 2003; 89:877-85; Augoff and Grabowski. Pol Merkuriusz Lek 2004; 17:644-7; Nagai et al., Int J Cancer. 198815; 10-6; Evans et al., Biol. Chem. 1985; 260:306-14) were determined in pure isolated enzyme preparations. Briefly, PK Type III (from rabbit muscle [2.7.1.40]) was prepared in distilled water+HEPES (pH 7.5), at a concentration of 0.5 enzyme U/ml. Pyruvic acid was converted to lactate in the presence of LDH (from rabbit muscle, type V-S [EC 1.1.1.27]), at a concentration of 10 U/ml in the presence of adenosine, 2′,5′-diphospahte (ADP) (1.5 mM), β-NADH (1 mM)±magnesium sulfate (MgSO4) (5 mM). Experimental compounds were incubated with the enzyme solution for 10 minutes and addition of 1 mM phosphoenolpyruvate (PEP) prepared in distilled water started the reaction. Negative controls were established for all compounds tested. Enzyme activities were determined by spectrophotometric analysis using a UV spectrometer at 340 nm, by monitoring the oxidation of NADH. Experimental compounds that blocked the reaction through the PK/LDH cascade, were re-analyzed for LDH inhibition. LDH activity was achieved using an enzyme reaction mixture, minus PK or PEP, and starting the reaction with pyruvate (1 mM) prepared in buffered distilled water. Validation studies for LDH kinetic activity were established by monitoring the oxidation of NADH over time and concentration with dual detection quantifying lactic acid using a lactate oxidase based colorimetric enzymatic assay (Procedure No 735, Sigma Diagnostics, St. Louis, Mo.). FIG. 2A describes the effect of tumoricidal plant extracts and 2′,3,4′5,7-pentahydroxyflavone on inhibition of PK/LDH activity. The data represent reaction rate of NADH oxidation in the presence of enzyme/cofactor reagents+PEP (1 mM)±varying concentration of experimental compounds at 30 Min. […] Significance of difference from the controls were determined by a one-way ANOVA, followed by a Tukey mean comparison post hoc test, [*] group P<0.001,*P<0.001. FIG. 2B describes the effect of tumoricidal plant-extracts and 2′,3,4′5,7-pentahydroxyflavone on inhibition of LDH activity. The data represent reaction rate of NADH oxidation in the presence of enzyme/cofactor reagents+pyruvate (1 mM)±single level of experimental compound over time. […] Significance of difference from the control was determined by a two-way ANOVA, [*] P<0.001.

The subject of a further experiment is mitochondrial complex II. Put plainly: kinetic activity of mitochondrial complex II in cancer cells. It counts as biochemical.
The subject of another experiment is cancer cells. Put plainly: lethality to cancer cells. In kind it is cell-based.
A further experiment relates to complex IV. Put plainly: mitochondrial respiration / O2 utilization through complex IV in cancer cells. It counts as cell-based.
The test system of experiment [1] is neuroblastoma and MCF-7 cell line. Put plainly: toxicity of 3-BP versus 2,3-DMBQ: growth inhibition of MCF-7 cells and cell viability of N2A cells. In kind it is cell-based. As to conditions: 24 hour incubation (FIGS. 3A,B). As for the experimental part:
Briefly, cells were grown in Eagles MEM medium with […] and 10% calf serum and plated at 5′ 104 cells in 24 well plates. Appropriate positive (tamoxifen) and negative (no drug) controls were maintained simultaneously. After 24 hour incubation, cells were trypsined and collected by centrifugation, re-suspended in fresh media and cells were counted using trypan blue dye on a hemocytometer. […] FIG. 3B represents the evaluation of 3-BP versus 2,3-DMBQ on cell viability in N2A neuroblastoma cell line. Briefly, the experimental media consisted of DMEM (without phenol red), supplemented with 1.8% FBS (v/v), penicillin (100 U/ml)/streptomycin (0.1 mg/ml), 4 mM L-glutamine and 2 μM sodium pyruvate. Cells were plated at approximately 0.5×10^6 cells/ml in 96 well plates. A stock solution of each experimental compound was prepared in HBSS containing 5 mM HEPES, adjusted to a pH of 7.4. After 24 hours incubation at 37° C. and 5% CO2/atmosphere almar blue indicator dye was used to assess cell viability. Quantitative analysis of dye conversion was measured on a microplate fluorometer—Model 7620-version 5.02, Cambridge Technologies Inc. with settings fixed at [550/580], [excitation/emission], wavelengths. […]

Experiment [2] deals with mitochondrial complex's I and IV. Put plainly: Vmax and Km of mitochondrial complexes I and IV. In kind it is biochemical.
The subject of another experiment is N-2A neuroblastoma cells. Put plainly: in vitro screening of >700 nutraceuticals for tumoricidal properties (loss of cell viability, 24 H). In kind it is cell-based. As to conditions: 24 H incubation at 37° C.
The test system of experiment [3] is MD-MB-231 human mammary carcinoma. The experiment can be described thus: efficacy against MD-MB-231 human mammary carcinoma xenograft. In kind it is in vivo, Nu/Nu nude mice. As to conditions: in comparison to a vehicle control; formulation i.p./s.c., taxol i.v. On the technique in general: A xenograft is tissue or cells of one species grown in another, often human tumour cells in immunodeficient mice.
Method: Briefly, 6 week old female Nu/Nu mice were kept in an autoclaved micro isolator cage, maintained under pathogen free conditions. The tumors were ascetically surgically removed and transferred to a sterile Petri dish containing RPMI-1640. The homogenate was centrifuged, pelleted, resuspended into a concentration of 10 million cells/ml and injected into the mammary fat pad. The tumors were established by day 9 after implant and treatment began. The formula was prepared in sterile saline, and administered by i.p. injection for 3 days and s.c for the next 3 days, stopping at day 15. Taxol—(24 mg/kg in 2% PEG 300, 8% cremophor CL an 80% sterile Saline) was administered i.v. intermittently up to day 19 (days 10,13,16 and 19). […] The data represents tumor volume estimation (mm3) and expressed as the mean±S.E.M., n=4, for treatment groups, with n=1 for the control. […] The data represents weight gain (g) and are expressed as the mean±S.E.M., n=4, for treatment groups, with n=1 for the control.

Molecules are shown by their SMILES. Where two headings read alike, the source gives them in different places. Some results are limits rather than exact numbers.

Method for N-2A neuroblastoma cells: In brief, we conducted a large scale screening of over 700 commonly sold nutritional supplements for relative tumoricidal properties in vitro.
The data represent loss of cell viability after 24 H incubation at 37° C., and represent the Mean±S.E.M. . . . n=4

Turning to `O=c1c(O)c(-c2ccc(O)cc2O)oc2cc(O)cc(O)c12` [2′,3,4′5,7-pentahydroxyflavone], the “LDH inhibition (LDH enzyme kinetic profiles)” value (from here on “LDH inhibition”) on LDH Type V is “inhibitor”. For the compound `COC1=C(OC)C(=O)C(C/C=C(\C)CC/C=C(\C)CC/C=C(\C)CC/C=C(\C)CC/C=C(\C)CC/C=C(\C)CC/C=C(\C)CC/C=C(\C)CC/C=C(\C)CCC=C(C)C)=C(C)C1=O` [CoQ10, ubiquinone (50)], the “Vmax / kinetic activity of mitochondrial complex II” value is reported as “increase” in the experiment with mitochondrial complex II and “augmenting” with mitochondrial complex II (listed as ubiquinone (50)). In the experiment with cancer cells, the “lethality to cancer cells” value is on record as “not as lethal as expected”. In addition, the “rate of mitochondrial respiration or O2 utilization through complex IV” value is on record as “did not control” with complex IV and “no positive effect” in the experiment with complex IV (listed as ubiquinone (50)). `COC1=C(OC)C(=O)C(C)=CC1=O` [DMBQ]: in experiment [1], the “toxicity relative to bromopyruvate” value was more than 50 ×. For the same compound, the “lethality to cancer cells” value in the experiment with cancer cells is recorded as “lethal”. For the compound `Cc1cc2nc3c(=O)[nH]c(=O)nc-3n(C[C@H](O)[C@H](O)[C@H](O)COP(=O)(O)OP(=O)(O)OC[C@H]3O[C@@H](n4cnc5c(N)ncnc54)[C@H](O)[C@@H]3O)c2cc1C` [FAD, flavin adenine dinucleotide], the “Vmax and Km of mitochondrial complex's I and IV” value (“Vmax and Km” below) in experiment [2] was “augmenting the Vmax and reduction of Km”. On to `Cc1cc2nc3c(=O)[nH]c(=O)nc-3n(C[C@H](O)[C@H](O)[C@H](O)COP(=O)(O)O)c2cc1C` [FMN, flavin mononucleotide], for which the “Vmax and Km” value in experiment [2] was “augmenting the Vmax and reduction of Km”. Take `C[C@H]1[C@H](C)CC[C@]2(C)CC[C@]3(C)C(=CC[C@@H]4[C@@]5(C)CC[C@@H](O)[C@](C)(C(=O)O)[C@@H]5CC[C@]43C)[C@H]12` [boswellic acid]: the “tumoricidal potency (loss of cell viability)” value with N-2A neuroblastoma cells is “most potent tumoricidal”. For the compound `O=C(O)CC(O)(CC(=O)O)C(=O)O` [citric acid], the “LDH inhibition” value at LDH Type V is recorded as “LDH inhibitors”. Take `COc1ccc(-c2cc(=O)c3c(O)cc(O[C@@H]4O[C@H](CO[C@@H]5O[C@@H](C)[C@H](O)[C@@H](O)[C@H]5O)[C@@H](O)[C@H](O)[C@H]4O)cc3o2)cc1O` [diosmin]: the “tumoricidal potency (loss of cell viability)” value in the experiment with N-2A neuroblastoma cells was “most potent tumoricidal”. Regarding `O=C(O[C@@H]1Cc2c(O)cc(O)cc2O[C@@H]1c1cc(O)c(O)c(O)c1)c1cc(O)c(O)c(O)c1` [epigallocatechin gallate], the “LDH inhibition” value at LDH Type V was “LDH inhibitors”. `CC(C)=CCC[C@]1(C)C=Cc2c(O)c3c(c(CC=C(C)C)c2O1)O[C@]12C(=C[C@@H]4C[C@H]1C(C)(C)O[C@@]2(C/C=C(/C)C(=O)O)C4=O)C3=O` [gambogic acid]: the “tumoricidal potency (loss of cell viability)” value in the experiment with N-2A neuroblastoma cells is on record as “most potent tumoricidal”. As to `O=c1c(O)c(-c2ccc(O)c(O)c2)oc2cc(O)cc(O)c12` [quercetin], the “LDH inhibition” value at LDH Type V is given as “LDH inhibitors”. For `CC(=O)O[C@H]1C(=O)[C@@]2(C)[C@H]([C@H](OC(=O)c3ccccc3)[C@]3(O)C[C@H](OC(=O)[C@H](O)[C@@H](NC(=O)c4ccccc4)c4ccccc4)C(C)=C1C3(C)C)[C@]1(OC(C)=O)CO[C@@H]1C[C@@H]2O` [taxol®], in experiment [3], the “tumor growth and growth latency” value was “reduced tumor growth and growth latency”. Consider `Cc1cc2nc3c(=O)[nH]c(=O)nc-3n(C[C@H](O)[C@H](O)[C@H](O)CO)c2cc1C` [vitamin B2, 7,8-dimethyl-10-ribityl-isoalloxazine], for which the “rate of mitochondrial respiration or O2 utilization through complex IV” value in the experiment with complex IV is “drastically potentiates”. Further, the “Vmax and Km” value in experiment [2] was “augmenting the Vmax and reduction of Km”.

These data come from US8802161B2, “Herbal composition and method of use for the treatment of cancer” (Florida Agricultural and Mechanical University, priority 2003, dated 2014).
